# In US20190119193A1, “COMPOSITION FOR REGULATING PLANT GROWTH, METHOD FOR TREATING PLANTS THEREWITH, AND ACTIVE INGREDIENT THEREOF” (Ivan Aleksandrovich Starikov, priority 2016, published 2019):
# Experiments:
# Assay type in all cases: in vivo
# Details in all cases: for Germinative energy: day 3; for Germinative capacity / Number of lateral roots / Sprout height / Taproot length: day 7
# [1] = test system: cucumber seeds (“Nezhinsky” variety); test: Laboratory tests of DMOA and DEOA for cucumber seeds
# Protocol: (§1) After that DMOA and DEOA were dissolved in dimethyl sulfoxide to give solutions of 10 g/L concentration, then water was added to give aqueous solutions of DMOA with concentrations of 5.5·10^−5 M, 5.5·10^−6 M, 5.5·10^−7 M, 5.5·10^−8 M, 5.5·10^−9 M and DEOA with concentrations of 4.8·10^−5 M, 4.8·10^−6 M, 4.8·10^−7 M, 4.8·10^−8 M, 4.8·10^−9 M.
# (§2) The obtained aqueous solutions of DMOA and DEOA were tested in the Scientific Center of Soil-Ecological Reasearch of the Federal State-Funded Educational Institution of Higher Education “Russian State Agrarian University—Moscow Agricultural Academy named after K. A. Timiryazev” (Moscow, 2015) according to the method described by T. A. Sergeeva (Method of laboratory testing of herbicides, Plant protection, 1963, No. 2, pp. 42-43). The primary laboratory screening of DMOA and DEOA was carried out on the seeds of five different crops: sunflower of “Voronezh 638” variety, soybean of “Vilana” variety, alfalfa of “Vega” variety, cucumber of “Nezhinsky” variety and tomato of “Volgogradets” variety.
# (§3) Water was used as a reference.
# (§4) A single experiment was carried out in a Petri dish. A circle of filter paper was laid at the bottom of the dish and treated with 5 ml of the work solution selected for the experiment. After that 25 seeds were uniformly laid on the surface of the treated filter paper. The Petri dish was kept at a temperature of 21-23° C. with illumination by fluorescent lamps for 7 days. The fourfold replication of the experiment within a single variant was applied.
# (§5) The experiment identified the number and percentage of normally germinated seeds on day 3 (germinative energy) and on day 7 (germinative capacity) after the beginning of the experiment. On day 7 the main biometric parameters were also measured: sprout height (mm), taproot length (mm) and number of lateral roots (pcs).
# (§6) The results were processed with the method of variance analysis with the help of STRAZ software in order to get the LSD0.05 (least significant difference between the test results on 5% significance level).
# [2] = test system: sunflower seeds (“Voronezh 638” variety); test: Laboratory tests of DMOA and DEOA for sunflower seeds
# Protocol: as §1, §2, §3, §4, §5, §6
# [3] = test system: alfalfa seeds (“Vega” variety); test: Laboratory tests of DMOA and DEOA for alfalfa seeds
# Protocol: as §1, §2, §3, §4, §5, §6
compound,measurement,setting,value
"CCOC(=O)C=C([O-])C(=O)OCC.[Na+] [DEOA, sodium salt of diethyl ester of oxaloacetic acid]",Germinative energy,[1]; 4.8 · 10^−5 M,84%
same,Germinative capacity,[1]; 4.8 · 10^−5 M,88%
same,Number of lateral roots,[1]; 4.8 · 10^−5 M,14.3 pcs.
same,Sprout height,[1]; 4.8 · 10^−5 M,27.8 ↑↑ mm
same,Taproot length,[1]; 4.8 · 10^−5 M,83.7 mm
same,Germinative energy,[1]; 4.8 · 10^−6 M,80%
same,Germinative capacity,[1]; 4.8 · 10^−6 M,85%
same,Number of lateral roots,[1]; 4.8 · 10^−6 M,14.4 pcs.
same,Sprout height,[1]; 4.8 · 10^−6 M,22.2 mm
same,Taproot length,[1]; 4.8 · 10^−6 M,88.3 ↑ mm
same,Germinative energy,[1]; 4.8 · 10^−7 M,84%
same,Germinative capacity,[1]; 4.8 · 10^−7 M,88%
same,Number of lateral roots,[1]; 4.8 · 10^−7 M,15.5 ↑ pcs.
same,Sprout height,[1]; 4.8 · 10^−7 M,22.3 mm
same,Taproot length,[1]; 4.8 · 10^−7 M,89.3 ↑ mm
same,Germinative energy,[1]; 4.8 · 10^−8 M,88%
same,Germinative capacity,[1]; 4.8 · 10^−8 M,95%
same,Number of lateral roots,[1]; 4.8 · 10^−8 M,12.4 pcs.
same,Sprout height,[1]; 4.8 · 10^−8 M,19.3 mm
same,Taproot length,[1]; 4.8 · 10^−8 M,79.8 mm
same,Germinative energy,[1]; 4.8 · 10^−9 M,91%
same,Germinative capacity,[1]; 4.8 · 10^−9 M,93%
same,Number of lateral roots,[1]; 4.8 · 10^−9 M,13.7 pcs.
same,Sprout height,[1]; 4.8 · 10^−9 M,21.6 mm
same,Taproot length,[1]; 4.8 · 10^−9 M,93.8 ↑↑ mm
same,Germinative energy,[2]; 4.8 · 10^−5 M,87%
same,Germinative capacity,[2]; 4.8 · 10^−5 M,93%
same,Number of lateral roots,[2]; 4.8 · 10^−5 M,9.6 pcs.
same,Sprout height,[2]; 4.8 · 10^−5 M,40.1 ↑↑↑↑↑ mm
same,Taproot length,[2]; 4.8 · 10^−5 M,38.4 mm
same,Germinative energy,[2]; 4.8 · 10^−6 M,80%
same,Germinative capacity,[2]; 4.8 · 10^−6 M,90%
same,Number of lateral roots,[2]; 4.8 · 10^−6 M,8.9 pcs.
same,Sprout height,[2]; 4.8 · 10^−6 M,29.7 ↑↑ mm
same,Taproot length,[2]; 4.8 · 10^−6 M,44.0 mm
same,Germinative energy,[2]; 4.8 · 10^−7 M,93 ↑ %
same,Germinative capacity,[2]; 4.8 · 10^−7 M,93%
same,Number of lateral roots,[2]; 4.8 · 10^−7 M,6.9 pcs.
same,Sprout height,[2]; 4.8 · 10^−7 M,29.2 ↑↑ mm
same,Taproot length,[2]; 4.8 · 10^−7 M,37.0 mm
same,Germinative energy,[2]; 4.8 · 10^−8 M,97 ↑ %
same,Germinative capacity,[2]; 4.8 · 10^−8 M,99 ↑ %
same,Number of lateral roots,[2]; 4.8 · 10^−8 M,11.2 ↑ pcs.
same,Sprout height,[2]; 4.8 · 10^−8 M,27.7 ↑ mm
same,Taproot length,[2]; 4.8 · 10^−8 M,56.3 ↑↑ mm
same,Germinative energy,[2]; 4.8 · 10^−9 M,81%
same,Germinative capacity,[2]; 4.8 · 10^−9 M,87%
same,Number of lateral roots,[2]; 4.8 · 10^−9 M,9.5 pcs.
same,Sprout height,[2]; 4.8 · 10^−9 M,30.5 ↑↑ mm
same,Taproot length,[2]; 4.8 · 10^−9 M,38.3 mm
same,Germinative energy,[3]; 4.8 · 10^−5 M,93%
same,Germinative capacity,[3]; 4.8 · 10^−5 M,97%
same,Number of lateral roots,[3]; 4.8 · 10^−5 M,0.1 pcs.
same,Sprout height,[3]; 4.8 · 10^−5 M,34.9 ↑↑ mm
same,Taproot length,[3]; 4.8 · 10^−5 M,41.9 ↑ mm
same,Germinative energy,[3]; 4.8 · 10^−6 M,73%
same,Germinative capacity,[3]; 4.8 · 10^−6 M,80%
same,Number of lateral roots,[3]; 4.8 · 10^−6 M,0.0 pcs.
same,Sprout height,[3]; 4.8 · 10^−6 M,32.5 ↑ mm
same,Taproot length,[3]; 4.8 · 10^−6 M,37.5 ↑ mm
same,Germinative energy,[3]; 4.8 · 10^−7 M,88%
same,Germinative capacity,[3]; 4.8 · 10^−7 M,93%
same,Number of lateral roots,[3]; 4.8 · 10^−7 M,0.5 pcs.
same,Sprout height,[3]; 4.8 · 10^−7 M,33.5 ↑ mm
same,Taproot length,[3]; 4.8 · 10^−7 M,32.2 mm
same,Germinative energy,[3]; 4.8 · 10^−8 M,73%
same,Germinative capacity,[3]; 4.8 · 10^−8 M,97%
same,Number of lateral roots,[3]; 4.8 · 10^−8 M,0.1 pcs.
same,Sprout height,[3]; 4.8 · 10^−8 M,32.4 ↑ mm
same,Taproot length,[3]; 4.8 · 10^−8 M,42.3 ↑ mm
same,Germinative energy,[3]; 4.8 · 10^−9 M,80%
same,Germinative capacity,[3]; 4.8 · 10^−9 M,87%
same,Number of lateral roots,[3]; 4.8 · 10^−9 M,0.7 ↑ pcs.
same,Sprout height,[3]; 4.8 · 10^−9 M,28.5 mm
same,Taproot length,[3]; 4.8 · 10^−9 M,34.6 mm
Sodium salt of dimethyl ester of oxaloacetic acid [DMOA],Germinative energy,[1]; 5.5 · 10^−5 M,86%
same,Germinative capacity,[1]; 5.5 · 10^−5 M,82%
same,Number of lateral roots,[1]; 5.5 · 10^−5 M,11.9 pcs.
same,Sprout height,[1]; 5.5 · 10^−5 M,19.0 mm
same,Taproot length,[1]; 5.5 · 10^−5 M,74.2 mm
same,Germinative energy,[1]; 5.5 · 10^−6 M,88%
same,Germinative capacity,[1]; 5.5 · 10^−6 M,91%
same,Number of lateral roots,[1]; 5.5 · 10^−6 M,12.3 pcs.
same,Sprout height,[1]; 5.5 · 10^−6 M,15.9 mm
same,Taproot length,[1]; 5.5 · 10^−6 M,75.6 mm
same,Germinative energy,[1]; 5.5 · 10^−7 M,85%
same,Germinative capacity,[1]; 5.5 · 10^−7 M,94%
same,Number of lateral roots,[1]; 5.5 · 10^−7 M,13.7 pcs.
same,Sprout height,[1]; 5.5 · 10^−7 M,17.7 mm
same,Taproot length,[1]; 5.5 · 10^−7 M,78.1 mm
same,Germinative energy,[1]; 5.5 · 10^−8 M,86%
same,Germinative capacity,[1]; 5.5 · 10^−8 M,78%
same,Number of lateral roots,[1]; 5.5 · 10^−8 M,13.5 pcs.
same,Sprout height,[1]; 5.5 · 10^−8 M,17.1 mm
same,Taproot length,[1]; 5.5 · 10^−8 M,74.8 mm
same,Germinative energy,[1]; 5.5 · 10^−9 M,82%
same,Germinative capacity,[1]; 5.5 · 10^−9 M,95%
same,Number of lateral roots,[1]; 5.5 · 10^−9 M,12.9 pcs.
same,Sprout height,[1]; 5.5 · 10^−9 M,18.2 mm
same,Taproot length,[1]; 5.5 · 10^−9 M,82.5 mm
same,Germinative energy,[2]; 5.5 · 10^−5 M,80%
same,Germinative capacity,[2]; 5.5 · 10^−5 M,90%
same,Number of lateral roots,[2]; 5.5 · 10^−5 M,9.7 pcs.
same,Sprout height,[2]; 5.5 · 10^−5 M,23.8 mm
same,Taproot length,[2]; 5.5 · 10^−5 M,35.2 mm
same,Germinative energy,[2]; 5.5 · 10^−6 M,83%
same,Germinative capacity,[2]; 5.5 · 10^−6 M,93%
same,Number of lateral roots,[2]; 5.5 · 10^−6 M,8.5 pcs.
same,Sprout height,[2]; 5.5 · 10^−6 M,23.0 mm
same,Taproot length,[2]; 5.5 · 10^−6 M,46.4 ↑ mm
same,Germinative energy,[2]; 5.5 · 10^−7 M,90 ↑ %
same,Germinative capacity,[2]; 5.5 · 10^−7 M,93%
same,Number of lateral roots,[2]; 5.5 · 10^−7 M,8.2 pcs.
same,Sprout height,[2]; 5.5 · 10^−7 M,26.9 ↑ mm
same,Taproot length,[2]; 5.5 · 10^−7 M,29.8 ↓ mm
same,Germinative energy,[2]; 5.5 · 10^−8 M,93 ↑ %
same,Germinative capacity,[2]; 5.5 · 10^−8 M,91%
same,Number of lateral roots,[2]; 5.5 · 10^−8 M,7.8 pcs.
same,Sprout height,[2]; 5.5 · 10^−8 M,28.8 ↑↑ mm
same,Taproot length,[2]; 5.5 · 10^−8 M,38.1 mm
same,Germinative energy,[2]; 5.5 · 10^−9 M,87%
same,Germinative capacity,[2]; 5.5 · 10^−9 M,93%
same,Number of lateral roots,[2]; 5.5 · 10^−9 M,11.6 ↑ pcs.
same,Sprout height,[2]; 5.5 · 10^−9 M,27.8 mm
same,Taproot length,[2]; 5.5 · 10^−9 M,51.9 ↑ mm
same,Germinative energy,[3]; 5.5 · 10^−5 M,93%
same,Germinative capacity,[3]; 5.5 · 10^−5 M,100 ↑ %
same,Number of lateral roots,[3]; 5.5 · 10^−5 M,0.6 ↑ pcs.
same,Sprout height,[3]; 5.5 · 10^−5 M,30.0 mm
same,Taproot length,[3]; 5.5 · 10^−5 M,28.1 mm
same,Germinative energy,[3]; 5.5 · 10^−6 M,88%
same,Germinative capacity,[3]; 5.5 · 10^−6 M,100 ↑ %
same,Number of lateral roots,[3]; 5.5 · 10^−6 M,0.7 ↑ pcs.
same,Sprout height,[3]; 5.5 · 10^−6 M,29.0 mm
same,Taproot length,[3]; 5.5 · 10^−6 M,30.9 mm
same,Germinative energy,[3]; 5.5 · 10^−7 M,88%
same,Germinative capacity,[3]; 5.5 · 10^−7 M,93%
same,Number of lateral roots,[3]; 5.5 · 10^−7 M,0.6 ↑ pcs.
same,Sprout height,[3]; 5.5 · 10^−7 M,28.9 mm
same,Taproot length,[3]; 5.5 · 10^−7 M,31.3 mm
same,Germinative energy,[3]; 5.5 · 10^−8 M,98 ↑ %
same,Germinative capacity,[3]; 5.5 · 10^−8 M,93%
same,Number of lateral roots,[3]; 5.5 · 10^−8 M,0.5 ↑ pcs.
same,Sprout height,[3]; 5.5 · 10^−8 M,28.9 mm
same,Taproot length,[3]; 5.5 · 10^−8 M,31.2 mm
same,Germinative energy,[3]; 5.5 · 10^−9 M,88%
same,Germinative capacity,[3]; 5.5 · 10^−9 M,100 ↑ %
same,Number of lateral roots,[3]; 5.5 · 10^−9 M,0.6 ↑ pcs.
same,Sprout height,[3]; 5.5 · 10^−9 M,30.1 mm
same,Taproot length,[3]; 5.5 · 10^−9 M,35.6 mm
